# How the values were obtained:
# [1] = Inhibition of Wistar rat kidney ALR1 using sodium D-glucuronate as substrate preincubated for 10 mins in presence of NADPH followed by substrate addition and measured after 4 mins; format: tissue-based
# Rattus norvegicus [2] = organism: Rattus norvegicus; assay: Selectivity index, ratio of IC50 for Wistar rat kidney ALR1 to IC50 for Wistar rat lens ALR2
# [3] = Inhibition of Wistar rat lens ALR2 using D,L-glyceraldehyde as substrate preincubated for 10 mins in presence of NADPH followed by substrate addition and measured after 4 mins; format: tissue-based
# [4] = Inhibition of Saccharomyces cerevisiae Alpha-glucosidase using p-nitrophenyl glucopyranoside as substrate preincubated for 5 mins followed by substrate addition and measured for 30 mins
# [5] = Octanol/buffer distribution coefficient, log D of compound at pH 7.4 incubated for 24 hrs by shake flask based HPLC method; format: physicochemical
# [6] = Antioxidant activity assessed as DPPH radical scavenging activity at 50 uM incubated for 30 mins by DPPH assay relative to control; format: functional
# Brain [7] = assay: Antioxidant activity in rat brain homogenate assessed as inhibition of lipid peroxidation by measuring MDA concentration at 50 uM by TBARS assay relative to control; format: functional, tissue-based; parameters: scale not given: the % may be the effect or the level left
# [8] = Antioxidant activity assessed as DPPH radical scavenging activity at 100 uM incubated for 30 mins by DPPH assay relative to control; format: functional
# Brain [9] = assay: Antioxidant activity in rat brain homogenate assessed as inhibition of lipid peroxidation by measuring MDA concentration at 100 uM by TBARS assay relative to control; format: functional, tissue-based; parameters: scale not given: the % may be the effect or the level left
# [10] = Antioxidant activity assessed as DPPH radical scavenging activity at 10 uM incubated for 30 mins by DPPH assay relative to control; format: functional
# Brain [11] = assay: Antioxidant activity in rat brain homogenate assessed as inhibition of lipid peroxidation by measuring MDA concentration at 5 uM by TBARS assay relative to control; format: functional, tissue-based; parameters: scale not given: the % may be the effect or the level left
# [12] = Antioxidant activity assessed as DPPH radical scavenging activity at 5 uM incubated for 30 mins by DPPH assay relative to control; format: functional
# Brain [13] = assay: Antioxidant activity in rat brain homogenate assessed as inhibition of lipid peroxidation by measuring MDA concentration at 10 uM relative to control; format: functional, tissue-based; parameters: scale not given: the % may be the effect or the level left
# Brain [14] = assay: Antioxidant activity in rat brain homogenate assessed as inhibition of lipid peroxidation by measuring MDA concentration at 1 uM by TBARS assay relative to control; format: functional, tissue-based; parameters: scale not given: the % may be the effect or the level left
# [15] = Antioxidant activity assessed as DPPH radical scavenging activity at 1 uM incubated for 30 mins by DPPH assay relative to control; format: functional
# Rattus norvegicus [16] = assay: Antidiabetic activity against STZ-induced diabetic Sprague-Dawley rat model assessed as reduction in fasting blood glucose level at 100 mg/kg, IG administered once daily for 28 days; format: functional; parameters: scale not given: the % may be the effect or the level left; conditions: time 28 day
# Rattus norvegicus [17] = organism: Rattus norvegicus; assay: Non competitive inhibition of Wistar rat lens ALR2 using D,L-glyceraldehyde as substrate up to 200 uM by Lineweaver-Burk plot analysis; format: tissue-based
# Saccharomyces cerevisiae = assay: Non competitive inhibition of Saccharomyces cerevisiae alpha-glucosidase using p-nitrophenyl glucopyranoside as substrate up to 200 uM by Lineweaver-Burk plot analysis
IC50 [1],Ratio IC50 (Rattus norvegicus [2]),IC50 [3],IC50 [4],Structure (SMILES),Activity (Brain [7]),Activity (Brain [9]),Activity [10],further results
> 100 µM,> 1.78,56.1 µM,,COC(=O)Cn1c(=O)oc2c(C(=O)/C=C/c3ccc(O)c(C(F)(F)F)c3)cccc21,,,,
> 100 µM,> 5.98,16.7 µM,,COc1cc(O)ccc1/C=C/C(=O)c1cccc2[nH]c(=O)oc12,,,,
> 100 µM,> 8.82,12.2 µM,,COC(=O)Cn1c(=O)oc2c(C(=O)/C=C/c3ccc(O)c(Cl)c3)cccc21,,,,
1.41 µM,2.87,0.491 µM,107 µM,O=C(/C=C/c1cc(F)c(O)c(F)c1)c1cccc2[nH]c(=O)oc12,,,,
> 100 µM,> 498,0.201 µM,41.5 µM,CC(C)=CCn1c(=O)oc2c(C(=O)/C=C/c3ccc(O)cc3)cccc21,27%,38.7%,7.1%,logD at 24 h [5]: 1.65; Activity [6]: 18.3%; Activity [8]: 39.1%
,,,,Cc1c(C)c2c(c(C)c1O)CCC(C)(C(=O)O)O2 (stereo not drawn),47.5%,79.2%,86.3%,Activity (Brain [11]): 15.5%; Activity [12]: 46.7%; Activity (Brain [13]): 31.9%; Activity (Brain [14]): 3.39%; Activity [15]: 8.63%
> 100 µM,> 121,0.826 µM,,COC(=O)Cn1c(=O)oc2c(C(=O)/C=C/c3ccc(O)cc3OC)cccc21,,,,
> 100 µM,> 415,0.226 µM,55.4 µM,COC(=O)Cn1c(=O)oc2c(C(=O)/C=C/c3ccc(O)cc3)cccc21,24.1%,38%,10.6%,logD at 24 h [5]: 1.46; Activity [6]: 30%; Activity [8]: 46.3%
> 100 µM,,> 100 µM,,COc1cc(/C=C/C(=O)c2cccc3[nH]c(=O)oc23)ccc1O,,,,
> 100 µM,> 193,0.517 µM,52.1 µM,CC(C)=CCn1c(=O)oc2c(C(=O)/C=C/c3ccc(O)c(F)c3)cccc21,22.4%,33.3%,12.7%,logD at 24 h [5]: 1.64; Activity [6]: 32.5%; Activity [8]: 53.8%
> 100 µM,,> 100 µM,,O=C(/C=C/c1ccc(O)c(Cl)c1)c1cccc2[nH]c(=O)oc12,,,,
,,,,CN(C)C(=N)NC(=N)N [METFORMIN],,,,Activity (Rattus norvegicus [16]): 38.5%
2.12 µM,0.595,3.54 µM,63.7 µM,O=C(/C=C/c1ccc(O)c(O)c1)c1cccc2[nH]c(=O)oc12,,,,
,,11.7 µM,,COC(=O)Cn1c(=O)oc2c(/C=C/c3ccc(O)cc3)cccc21,,,,
> 100 µM,,> 100 µM,,O=C(/C=C/c1cccc(O)c1)c1cccc2[nH]c(=O)oc12,,,,
10.3 µM,79.3,0.13 µM,4.13 µM,CC(C)=CCCn1c(=O)oc2c(C(=O)/C=C/c3ccc(O)c(O)c3)cccc21,92.5%,96.4%,94.4%,Activity (Brain [11]): 63.2%; logD at 24 h [5]: 1.04; Activity [12]: 89.8%; Activity (Brain [13]): 73%; Km (Rattus norvegicus [17]): 585 µM; Km (Saccharomyces cerevisiae): 449 µM; Activity [6]: 97%; Activity (Brain [14]): 34.2%; Activity [8]: 98.5%; Activity [15]: 44.7%
